Among the data in PubChem BioAssay AID1259407 (Chemical Carcinogenesis Research Information System (CCRIS), 2018) are mutagenic call values, retold here.

Structures are written as SMILES. Calls of active or inactive are those of the source. No rule for the calls is given here.

The data set deals with CCRIS mutagenicity, Ames/micronucleus/aberration tests. The data set can be described thus: CCRIS mutagenicity studies. To be noted: Test System: AMES SALMONELLA TYPHIMURIUM
Setting [1] is: Strain/Indicator: TA97, Metabolic Activation: NONE, Method: STANDARD PLATE.
[2] abbreviates: Strain/Indicator: TA98, Metabolic Activation: NONE, Method: STANDARD PLATE.
Where [3] appears, read: Strain/Indicator: TA102, Metabolic Activation: NONE, Method: STANDARD PLATE.
[4] abbreviates: Strain/Indicator: TA104, Metabolic Activation: NONE, Method: STANDARD PLATE.

For the molecule `Cc1cc(=O)n(-c2ccccc2)n1C`, the mutagenic call reads like this: under setting [1], “inactive; negative”; (Strain/Indicator: TA97, Metabolic Activation: RAT, LIVER, S-9, AROCLOR 1254, Method: STANDARD PLATE) “inactive; negative”; (Strain/Indicator: TA97A, Metabolic Activation: NONE, Method: STANDARD PLATE) “inactive; negative”; (Strain/Indicator: TA97A, Metabolic Activation: RAT LIVER S-9, PHENOBARBITAL, Method: STANDARD PLATE) “inactive; negative”; (Strain/Indicator: TA98, Metabolic Activation: GUINEA PIG, LIVER, S-9, PCB, Method: PREINCUBATION) “inactive; negative”; (Strain/Indicator: TA98, Metabolic Activation: HAMSTER, LIVER, S-9, PCB, Method: PREINCUBATION) “inactive; negative”. For the same molecule, the mutagenic call (Strain/Indicator: TA98, Metabolic Activation: MOUSE, LIVER, S-9, PCB, Method: PREINCUBATION) is “inactive; negative”; the mutagenic call (Strain/Indicator: TA98, Metabolic Activation: NONE, Method: PREINCUBATION) was “inactive; negative”; the mutagenic call under setting [2] is “inactive; negative”; the mutagenic call (Strain/Indicator: TA98, Metabolic Activation: RAT LIVER S-9, PHENOBARBITAL, Method: STANDARD PLATE) is “inactive; negative”; the mutagenic call (Strain/Indicator: TA98, Metabolic Activation: RAT, LIVER, S-9, AROCLOR 1254, Method: STANDARD PLATE) is “inactive; negative”; the mutagenic call (Strain/Indicator: TA98, Metabolic Activation: RAT, LIVER, S-9, PCB, Method: PREINCUBATION) was “inactive; negative”. The mutagenic call (Strain/Indicator: TA100, Metabolic Activation: GUINEA PIG, LIVER, S-9, PCB, Method: PREINCUBATION) is “inactive; negative”; the mutagenic call (Strain/Indicator: TA100, Metabolic Activation: HAMSTER, LIVER, S-9, PCB, Method: PREINCUBATION) is “inactive; negative”; the mutagenic call (Strain/Indicator: TA100, Metabolic Activation: MOUSE, LIVER, S-9, PCB, Method: PREINCUBATION) is “inactive; negative”; the mutagenic call (Strain/Indicator: TA100, Metabolic Activation: NONE, Method: PREINCUBATION) is “inactive; negative”; the mutagenic call (Strain/Indicator: TA100, Metabolic Activation: NONE, Method: STANDARD PLATE) is “inactive; negative”; the mutagenic call (Strain/Indicator: TA100, Metabolic Activation: RAT LIVER S-9, PHENOBARBITAL, Method: STANDARD PLATE) is “inactive; negative”. For the same molecule, the mutagenic call was “inactive; negative” (Strain/Indicator: TA100, Metabolic Activation: RAT, LIVER, S-9, AROCLOR 1254, Method: STANDARD PLATE); “inactive; negative” (Strain/Indicator: TA100, Metabolic Activation: RAT, LIVER, S-9, PCB, Method: PREINCUBATION); “inactive; negative” under setting [3]; “inactive; negative” (Strain/Indicator: TA102, Metabolic Activation: RAT LIVER S-9, PHENOBARBITAL, Method: STANDARD PLATE); “inactive; negative” (Strain/Indicator: TA102, Metabolic Activation: RAT, LIVER, S-9, AROCLOR 1254, Method: STANDARD PLATE); “inactive; negative” under setting [4]. Moreover, for the setting “Strain/Indicator: TA104, Metabolic Activation: RAT, LIVER, S-9, AROCLOR 1254, Method: STANDARD PLATE”, the mutagenic call was “inactive; negative”.
Regarding `CC[C@@]1(O)C[C@H](O[C@H]2C[C@H](N(C)C)[C@H](O[C@H]3C[C@H](O)[C@H](O[C@H]4C[C@H](O)[C@H](O)[C@H](C)O4)[C@H](C)O3)[C@H](C)O2)c2c(cc3c(c2O)C(=O)c2c(O)ccc(O)c2C3=O)[C@H]1C(=O)OC`, the mutagenic call under setting [1] is “inactive; negative”; the mutagenic call under setting [2] was “inactive; negative”; the mutagenic call under setting [3] is “active; positive”; the mutagenic call under setting [4] is “active; positive”; the mutagenic call (Strain/Indicator: TA2637, Metabolic Activation: NONE, Method: STANDARD PLATE) is “inactive; negative”.
